Laboratory results published in the supplement of paper PMC13207355.

Assays:
Settings in all cases: exposure time: 72 h
E28 [1] = patient-derived glioblastoma stem cells of classical subtype; experiment: phenotypic distance (Euclidean, principal components) from DMSO controls (arbitrary units); higher = stronger morphological change
E13 [2] = patient-derived glioblastoma stem cells of classical subtype; experiment: as above
FT3469 [3] = normal neural stem cell line; experiment: as above
E34 [4] = patient-derived glioblastoma stem cells of proneural subtype; experiment: as above
E31 [5] = patient-derived glioblastoma stem cells of proneural subtype; experiment: as above
E57 [6] = patient-derived glioblastoma stem cells of mesenchymal subtype; experiment: as above
E21 [7] = patient-derived glioblastoma stem cells of mesenchymal subtype; experiment: as above
E28 [8] = experiment: surviving fraction (nuclei count normalised to DMSO); higher = more cells surviving (less toxic)
E13 [9] = experiment: as above
FT3469 [10] = experiment: as above
E34 [11] = experiment: as above
E31 [12] = experiment: as above
E57 [13] = experiment: as above
E21 [14] = experiment: as above
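Throughout, for phenotypic distance (Euclidean, principal components) from DMSO controls: cell Painting imaging in 384-well plates, CellProfiler features reduced to at least 20 principal components, Euclidean distance versus same-plate DMSO vehicle wells (0.1% v/v), median over six images per well.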
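Throughout, for surviving fraction (nuclei count normalised to DMSO): nuclei counted by high-content imaging of Hoechst-stained cells in laminin-coated 384-well plates, relative to 0.1% DMSO vehicle wells, with staurosporine as cell-death control.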

CC(=O)[C@]1(O)Cc2c(O)c3c(c(O)c2[C@@H](O[C@H]2C[C@H](N)[C@H](O)[C@H](C)O2)C1)C(=O)c1ccccc1C3=O [Idarubicin]
Settings | phenotypic distance | surviving fraction
E13 [2], 4.1 nM | 7.02 | –
E13 [2], 12.3 nM | 6.41 | –
E13 [2], 37 nM | 6.27 | –
E13 [2], 111.1 nM | 5.38 | –
E13 [2], 333.3 nM | 6.31 | –
E13 [2], 1000 nM | 6.11 | –
E13 [2], 3000 nM | 6.59 | –
E13 [9], 4.1 nM | – | 0.402
E13 [9], 12.3 nM | – | 0.404
E13 [9], 37 nM | – | 0.255
E13 [9], 111.1 nM | – | 0.25
E13 [9], 333.3 nM | – | 0.179
E13 [9], 1000 nM | – | 0.0911
E13 [9], 3000 nM | – | 0.0243
E21 [7], 4.1 nM | 7.83 | –
E21 [7], 12.3 nM | 6.13 | –
E21 [7], 37 nM | 5.05 | –
E21 [7], 111.1 nM | 5.05 | –
E21 [7], 333.3 nM | 5.58 | –
E21 [7], 1000 nM | 5.16 | –
E21 [7], 3000 nM | 8.48 | –
E21 [14], 4.1 nM | – | 0.371
E21 [14], 12.3 nM | – | 0.371
E21 [14], 37 nM | – | 0.165
E21 [14], 111.1 nM | – | 0.193
E21 [14], 333.3 nM | – | 0.167
E21 [14], 1000 nM | – | 0.164
E21 [14], 3000 nM | – | 0.0457
E28 [1], 4.1 nM | 2.71 | –
E28 [1], 12.3 nM | 3.28 | –
E28 [1], 37 nM | 3.42 | –
E28 [1], 111.1 nM | 2.57 | –
E28 [1], 333.3 nM | 3.02 | –
E28 [1], 1000 nM | 4.74 | –
E28 [1], 3000 nM | 5.14 | –
E28 [8], 4.1 nM | – | 0.386
E28 [8], 12.3 nM | – | 0.41
E28 [8], 37 nM | – | 0.313
E28 [8], 111.1 nM | – | 0.304
E28 [8], 333.3 nM | – | 0.271
E28 [8], 1000 nM | – | 0.18
E28 [8], 3000 nM | – | 0.241
E31 [5], 4.1 nM | 2.69 | –
E31 [5], 12.3 nM | 2.97 | –
E31 [5], 37 nM | 3.12 | –
E31 [5], 111.1 nM | 4.59 | –
E31 [5], 333.3 nM | 4.15 | –
E31 [5], 1000 nM | 5.28 | –
E31 [5], 3000 nM | 4.78 | –
E31 [12], 4.1 nM | – | 0.259
E31 [12], 12.3 nM | – | 0.226
E31 [12], 37 nM | – | 0.179
E31 [12], 111.1 nM | – | 0.149
E31 [12], 333.3 nM | – | 0.139
E31 [12], 1000 nM | – | 0.114
E31 [12], 3000 nM | – | 0.072
E34 [4], 4.1 nM | 4.82 | –
E34 [4], 12.3 nM | 4.66 | –
E34 [4], 37 nM | 2.72 | –
E34 [4], 111.1 nM | 2.83 | –
E34 [4], 333.3 nM | 2.83 | –
E34 [4], 1000 nM | 5.05 | –
E34 [4], 3000 nM | 4 | –
E34 [11], 4.1 nM | – | 0.611
E34 [11], 12.3 nM | – | 0.511
E34 [11], 37 nM | – | 0.54
E34 [11], 111.1 nM | – | 0.538
E34 [11], 333.3 nM | – | 0.479
E34 [11], 1000 nM | – | 0.448
E34 [11], 3000 nM | – | 0.15
E57 [6], 4.1 nM | 11.4 | –
E57 [6], 12.3 nM | 9.36 | –
E57 [6], 37 nM | 6.52 | –
E57 [6], 111.1 nM | 6.05 | –
E57 [6], 333.3 nM | 5.69 | –
E57 [6], 1000 nM | 6.02 | –
E57 [6], 3000 nM | 6.32 | –
E57 [13], 4.1 nM | – | 0.197
E57 [13], 12.3 nM | – | 0.205
E57 [13], 37 nM | – | 0.146
E57 [13], 111.1 nM | – | 0.166
E57 [13], 333.3 nM | – | 0.14
E57 [13], 1000 nM | – | 0.124
E57 [13], 3000 nM | – | 0.0591
FT3469 [3], 4.1 nM | 1.93 | –
FT3469 [3], 12.3 nM | 1.84 | –
FT3469 [3], 37 nM | 1.77 | –
FT3469 [3], 111.1 nM | 1.39 | –
FT3469 [3], 333.3 nM | 2.3 | –
FT3469 [3], 1000 nM | 3.94 | –
FT3469 [3], 3000 nM | 5.56 | –
FT3469 [10], 4.1 nM | – | 0.654
FT3469 [10], 12.3 nM | – | 0.716
FT3469 [10], 37 nM | – | 0.663
FT3469 [10], 111.1 nM | – | 0.592
FT3469 [10], 333.3 nM | – | 0.495
FT3469 [10], 1000 nM | – | 0.439
FT3469 [10], 3000 nM | – | 0.0825

C/C=C(\C)C(=O)N[C@@H](c1ccccc1)[C@@H](O)C(=O)O[C@H]1C[C@@]2(O)[C@@H](OC(=O)c3ccccc3)[C@@H]3[C@]4(OC(C)=O)CO[C@@H]4C[C@H](O)[C@@]3(C)C(=O)[C@H](OC(C)=O)C(=C1C)C2(C)C [Cephalomannine]
Settings | phenotypic distance | surviving fraction
E13 [2], 4.11523 nM | 4.23 | –
E13 [2], 12.34567901 nM | 4.51 | –
E13 [2], 37.037 nM | 4.54 | –
E13 [2], 111.1111111 nM | 6.45 | –
E13 [2], 333.333 nM | 5.33 | –
E13 [2], 1000 nM | 5.74 | –
E13 [2], 3000 nM | 5.58 | –
E13 [9], 4.11523 nM | – | 0.308
E13 [9], 12.34567901 nM | – | 0.245
E13 [9], 37.037 nM | – | 0.27
E13 [9], 111.1111111 nM | – | 0.137
E13 [9], 333.333 nM | – | 0.171
E13 [9], 1000 nM | – | 0.171
E13 [9], 3000 nM | – | 0.19
E21 [7], 4.11523 nM | 4.99 | –
E21 [7], 12.34567901 nM | 5.05 | –
E21 [7], 37.037 nM | 5.62 | –
E21 [7], 111.1111111 nM | 6.2 | –
E21 [7], 333.333 nM | 5.44 | –
E21 [7], 1000 nM | 6.44 | –
E21 [7], 3000 nM | 7.14 | –
E21 [14], 4.11523 nM | – | 0.335
E21 [14], 12.34567901 nM | – | 0.327
E21 [14], 37.037 nM | – | 0.209
E21 [14], 111.1111111 nM | – | 0.246
E21 [14], 333.333 nM | – | 0.213
E21 [14], 1000 nM | – | 0.214
E21 [14], 3000 nM | – | 0.198
E28 [1], 4.11523 nM | 3.22 | –
E28 [1], 12.34567901 nM | 3.3 | –
E28 [1], 37.037 nM | 3.65 | –
E28 [1], 111.1111111 nM | 3.5 | –
E28 [1], 333.333 nM | 3.82 | –
E28 [1], 1000 nM | 3.7 | –
E28 [1], 3000 nM | 4.32 | –
E28 [8], 4.11523 nM | – | 0.515
E28 [8], 12.34567901 nM | – | 0.557
E28 [8], 37.037 nM | – | 0.304
E28 [8], 111.1111111 nM | – | 0.357
E28 [8], 333.333 nM | – | 0.302
E28 [8], 1000 nM | – | 0.286
E28 [8], 3000 nM | – | 0.249
E31 [5], 4.11523 nM | 3.6 | –
E31 [5], 12.34567901 nM | 4.39 | –
E31 [5], 37.037 nM | 3.82 | –
E31 [5], 111.1111111 nM | 4.56 | –
E31 [5], 333.333 nM | 4.66 | –
E31 [5], 1000 nM | 3.37 | –
E31 [5], 3000 nM | 3.61 | –
E31 [12], 4.11523 nM | – | 0.23
E31 [12], 12.34567901 nM | – | 0.132
E31 [12], 37.037 nM | – | 0.12
E31 [12], 111.1111111 nM | – | 0.11
E31 [12], 333.333 nM | – | 0.0834
E31 [12], 1000 nM | – | 0.12
E31 [12], 3000 nM | – | 0.148
E34 [4], 4.11523 nM | 3.55 | –
E34 [4], 12.34567901 nM | 3.84 | –
E34 [4], 37.037 nM | 3.81 | –
E34 [4], 111.1111111 nM | 3.17 | –
E34 [4], 333.333 nM | 3.79 | –
E34 [4], 1000 nM | 3.73 | –
E34 [4], 3000 nM | 3.93 | –
E34 [11], 4.11523 nM | – | 0.497
E34 [11], 12.34567901 nM | – | 0.442
E34 [11], 37.037 nM | – | 0.356
E34 [11], 111.1111111 nM | – | 0.284
E34 [11], 333.333 nM | – | 0.293
E34 [11], 1000 nM | – | 0.356
E34 [11], 3000 nM | – | 0.382
E57 [6], 4.11523 nM | 5.45 | –
E57 [6], 12.34567901 nM | 5.1 | –
E57 [6], 37.037 nM | 5.59 | –
E57 [6], 111.1111111 nM | 5.43 | –
E57 [6], 333.333 nM | 5.14 | –
E57 [6], 1000 nM | 5.43 | –
E57 [6], 3000 nM | 5.27 | –
E57 [13], 4.11523 nM | – | 0.156
E57 [13], 12.34567901 nM | – | 0.125
E57 [13], 37.037 nM | – | 0.0853
E57 [13], 111.1111111 nM | – | 0.0579
E57 [13], 333.333 nM | – | 0.0628
E57 [13], 1000 nM | – | 0.0598
E57 [13], 3000 nM | – | 0.0598
FT3469 [3], 4.11523 nM | 2.71 | –
FT3469 [3], 12.34567901 nM | 2.83 | –
FT3469 [3], 37.037 nM | 3.01 | –
FT3469 [3], 111.1111111 nM | 3.67 | –
FT3469 [3], 333.333 nM | 3.37 | –
FT3469 [3], 1000 nM | 3.99 | –
FT3469 [3], 3000 nM | 4.09 | –
FT3469 [10], 4.11523 nM | – | 0.62
FT3469 [10], 12.34567901 nM | – | 0.646
FT3469 [10], 37.037 nM | – | 0.577
FT3469 [10], 111.1111111 nM | – | 0.441
FT3469 [10], 333.333 nM | – | 0.378
FT3469 [10], 1000 nM | – | 0.465
FT3469 [10], 3000 nM | – | 0.449
